Assay results reported in patent US11180487B2, “Substituted cyanoindoline derivatives as NIK inhibitors” (Janssen Pharmaceutica NV, priority 2016, dated 2021).
Where two headings read alike, the source gives them in different places.

What was measured:
[1] = target: recombinant human NF-kappaB-inducing kinase (NIK/MAP3K14) (Homo sapiens, UniProt Q99558); assay: Inhibition of auto-phosphorylation of recombinant human NIK/MAP3K14 activity (AlphaScreen), Biological Assay A; type: biochemical; conditions: averaged values over all measurements on all batches
Sequence of recombinant human NF-kappaB-inducing kinase (NIK/MAP3K14) (Q99558 whole entry): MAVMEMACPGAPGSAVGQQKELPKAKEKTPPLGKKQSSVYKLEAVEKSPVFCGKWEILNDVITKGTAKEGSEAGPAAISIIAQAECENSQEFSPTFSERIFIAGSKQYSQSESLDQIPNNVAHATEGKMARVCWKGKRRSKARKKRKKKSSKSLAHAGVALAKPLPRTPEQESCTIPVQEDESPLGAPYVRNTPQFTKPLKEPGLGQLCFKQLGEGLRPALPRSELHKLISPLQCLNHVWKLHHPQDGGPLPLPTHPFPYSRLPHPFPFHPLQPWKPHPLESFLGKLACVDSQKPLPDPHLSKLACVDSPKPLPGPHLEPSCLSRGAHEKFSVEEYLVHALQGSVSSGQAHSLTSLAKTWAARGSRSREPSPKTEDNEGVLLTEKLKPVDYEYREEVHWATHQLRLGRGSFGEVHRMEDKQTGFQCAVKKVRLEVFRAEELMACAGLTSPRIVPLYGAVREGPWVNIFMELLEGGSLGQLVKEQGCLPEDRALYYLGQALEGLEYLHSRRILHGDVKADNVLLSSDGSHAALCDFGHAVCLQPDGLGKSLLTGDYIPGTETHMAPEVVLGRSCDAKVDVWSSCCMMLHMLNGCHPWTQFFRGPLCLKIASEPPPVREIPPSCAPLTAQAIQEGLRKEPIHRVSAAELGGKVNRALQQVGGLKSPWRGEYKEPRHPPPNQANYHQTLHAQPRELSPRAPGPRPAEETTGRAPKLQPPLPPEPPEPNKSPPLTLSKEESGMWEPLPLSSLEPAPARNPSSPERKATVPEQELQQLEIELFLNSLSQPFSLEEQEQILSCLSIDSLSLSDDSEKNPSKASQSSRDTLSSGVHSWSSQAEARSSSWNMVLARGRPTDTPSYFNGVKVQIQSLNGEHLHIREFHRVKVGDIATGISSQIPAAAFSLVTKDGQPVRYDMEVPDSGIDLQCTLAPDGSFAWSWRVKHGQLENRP
Experimental: Inhibition of Auto-Phosphorylation of Recombinant Human NF-kappaB-Inducing Kinase (NIK/MAP3K14) Activity (AlphaScreen®)
NIK/MAP3K14 auto-phosphorylation activity was measured using the AlphaScreen® (αscreen) format (Perkin Elmer). All compounds tested were dissolved in dimethyl sulfoxide (DMSO) and further dilutions were made in assay buffer. Final DMSO concentration was 1% (v/v) in assays. Assay buffer was 50 mM Tris pH 7.5 containing 1 mM EGTA (ethylene glycol tetraacetic acid), 1 mM DTT (dithiothreitol), 0.1 mM Na3VO4, 5 mM MgCl2, 0.01% Tween® 20. Assays were carried out in 384 well Alphaplates (Perkin Elmer). Incubations consisted of compound, 25 microM Adenosine-5′-triphosphate (ATP), and 0.2 nM NIK/MAP3K14. Incubations were initiated by addition of GST-tagged NIK/MAP3K14 enzyme, carried out for 1 h at 25° C. and terminated by addition of stop buffer containing anti-phospho-IKK Ser176/180 antibody. Protein A Acceptor and Glutathione-Donor beads were added before reading using an EnVision® Multilabel Plate Reader (Perkin Elmer). Signal obtained in the wells containing blank samples was subtracted from all other wells and IC50's were determined by fitting a sigmoidal curve to % inhibition of control versus Log10 compound concentration.

[2] = system: KMS12-BM (NIK WT) multiple myeloma cells; assay: Antiproliferative activity on KMS12-BM multiple myeloma cells (CellTiter-Glo, 96 hr), Biological Assay C; type: cell-based, human; conditions: averaged values, read-out: KMS-12 Proliferation inhibition (IC50 (nM))
Experimental: (§1) Determination of Antiproliferative Activity on JJN-3 (NIK Translocated) and KMS12-BM (NIK WT) Multiple Myeloma Cells
(§2) All compounds tested were dissolved in DMSO and further dilutions were made in culture medium. Final DMSO concentration was 0.3% (v/v) in cell proliferation assays. Viability was assessed using CellTiter-Glo cell viability assay kit (Promega). The human JJN-3 and KMS12-BM cells (DSMZ) were cultured in RPMI 1640 medium supplemented with 2 mM L-glutamine, and 10% fetal calf serum (PAA). Cells were routinely kept as suspension cells at 37° C. in a humidified 5% CO2 atmosphere. Cells were passaged at a seeding density of 0.2×10^6/ml twice a week. Cells were seeded in black tissue culture treated 96-well plates (Perkin Elmer). Densities used for plating ranged from 15000 (JJN3) to 20000 (KMS12BM) cells per well in a total volume of 135 μl medium. Drugs and/or solvents were added (15 μl) to a final volume of 150 μl. Following 96 hr of treatment, plates were removed from the incubator and allowed to equilibrate to room temperature for approx 10 min. 75 μl CellTiter-Glo reagent was added to each well that was then covered (Perkin Elmer Topseal) and shaken on plate shaker for 10 min. Luminescence was measured on a HTS Topcount (Perkin Elmer).
(§3) Within an experiment, the results for each treatment were the mean of 2 replicate wells. For initial screening purposes, compounds were tested using a 9 point dilution curve (serial 1:3 dilutions). For each experiment, controls (containing no drug) and a blank incubation (containing cells read at the time of compound addition) were run in parallel. The blank value was subtracted from all control and sample values. For each sample, the mean value for cell growth (in relative light units) was expressed as a percentage of the mean value for cell growth of the control.

[3] = system: JJN-3 (NIK translocated) multiple myeloma cells; assay: Antiproliferative activity on JJN-3 multiple myeloma cells (CellTiter-Glo, 96 hr), Biological Assay C; type: cell-based, human; conditions: JJN-3 (NIK translocated) cells, averaged values, read-out: JJN-3 Proliferation inhibition (IC50 (nM))
Experimental: as §1, §2, §3

SMILES	IC50 [1] [nM]	melting point [°C]	IC50 ([2]; Homo sapiens, KMS-12-BM, 96 h) [nM]	IC50 ([3]; Homo sapiens, JJN-3, 96 h) [nM]	IC50 [2] [nM]	IC50 [3] [nM]
CN1CCCC(Oc2ccc(Cl)cc2Nc2nccc(-c3cc(C#N)c4c(c3)C(C)(CO)CN4)n2)C1 (mixture of isomers) [Compound 39]	7.4	173	2340	87	–	–
COc1cc(C(=O)NC2CNCC2O)c(Cl)cc1Nc1nccc(-c2cc(C#N)c3c(c2)C(C)(C)CN3)n1 (mixture of isomers) [Compound 124]	1.6	–	437	525	–	–
COc1cc(C(=O)N2CC[C@@H]3CNC[C@@H]32)c(Cl)cc1Nc1nccc(-c2cc(C#N)c3c(c2)C(C)(C)CN3)n1 (relative stereo) [Compound 122]	4.7	–	~4470	35	–	–
Cc1ccc(C#N)cc1Nc1nccc(-c2cc(C#N)c3c(c2)C(C)(CO)CN3)n1 (stereo not drawn) [Compound 26]	3.7	195	> 10000	255	–	–
Cc1ccc(Cl)cc1Nc1nccc(-c2cc(C#N)c3c(c2)C(C)(CO)CN3)n1 (stereo not drawn) [Compound 27]	9.2	289	> 10000	106	–	–
CC1(CO)CNc2c(C#N)cc(-c3ccnc(Nc4cc(Cl)ccc4Cl)n3)cc21 (stereo not drawn) [Compound 29]	17.4	210	> 10000	166	–	–
COc1ccc(C(F)(F)F)cc1Nc1nccc(-c2cc(C#N)c3c(c2)C(C)(CO)CN3)n1 (stereo not drawn) [Compound 30]	51.3	224	> 10000	> 10000	–	–
COCCOc1cc(C2CCOCC2)ccc1Nc1nccc(-c2cc(C#N)c3c(c2)[C@@](C)(CO)CN3)n1 [Compound 61]	11	–	> 10000	186	–	–
C[C@]1(CO)CNc2c(C#N)cc(-c3ccnc(Nc4ccccc4P(C)(C)=O)n3)cc21 [Compound 62]	912	228	–	–	–	–
CC(C)Oc1ccc(C(F)(F)F)cc1Nc1nccc(-c2cc(C#N)c3c(c2)C(C)(CO)CN3)n1 (stereo not drawn) [Compound 76]	186	–	> 10000	2340	–	–
COC(=O)c1cc(Nc2nccc(-c3cc(C#N)c4c(c3)C(C)(CO)CN4)n2)cc(C(F)(F)F)c1 (stereo not drawn) [Compound 77]	46.8	–	~2460	126	–	–
COCc1cc(OC)c(Nc2nccc(-c3cc(C#N)c4c(c3)C(C)(C)CN4)n2)cc1Cl [Compound 88]	85.1	–	> 10000	178	–	–
COCCN1CCN(c2cc(OC)c(Nc3nccc(-c4cc(C#N)c5c(c4)C(C)(C)CN5)n3)cc2Cl)CC1 [Compound 89]	20.9	–	> 10000	~100	–	–
CC1(C)CNc2c(C#N)cc(-c3ccnc(Nc4cc(Cl)ccc4S(C)(=O)=O)n3)cc21 [Compound 90]	219	–	> 10000	> 10000	–	–
CCN1CCN(c2cc(C)c(Nc3nccc(-c4cc(C#N)c5c(c4)C(C)(C)CN5)n3)cc2Cl)CC1 [Compound 91]	7.2	–	> 10000	~107	–	–
COc1cc(N2CCC(OC)CC2)c(Cl)cc1Nc1nccc(-c2cc(C#N)c3c(c2)C(C)(C)CN3)n1 [Compound 92]	138	–	> 10000	389	–	–

SMILES	IC50 [1] [nM]	melting point [°C]	IC50 ([2]; Homo sapiens, KMS-12-BM, 96 h) [nM]	IC50 ([3]; Homo sapiens, JJN-3, 96 h) [nM]	IC50 [2] [nM]	IC50 [3] [nM]
COc1cc(N2CCN(C(C)C)CC2)c(Cl)cc1Nc1nccc(-c2cc(C#N)c3c(c2)C(C)(C)CN3)n1 [Compound 93]	11.5	–	> 10000	83	–	–
COCCN1CCC(c2cc(OC)c(Nc3nccc(-c4cc(C#N)c5c(c4)C(C)(C)CN5)n3)cc2C)CC1 [Compound 94]	9.8	–	> 10000	166	–	–
COc1cc(OCCN2CCN(C)CC2)c(Cl)cc1Nc1nccc(-c2cc(C#N)c3c(c2)C(C)(C)CN3)n1 [Compound 95]	9.3	–	> 10000	129	–	–
COc1cc(S(C)(=O)=O)c(F)cc1Nc1nccc(-c2cc(C#N)c3c(c2)C(C)(C)CN3)n1 [Compound 96]	9.1	–	> 10000	~81	–	–
COc1cc(N2CCC(O)C2)c(Cl)cc1Nc1nccc(-c2cc(C#N)c3c(c2)C(C)(C)CN3)n1 (stereo not drawn) [Compound 97]	45.7	–	4360	59	–	–
COc1cc(N2CCN(C3CC3)CC2)c(Cl)cc1Nc1nccc(-c2cc(C#N)c3c(c2)C(C)(C)CN3)n1 [Compound 98]	129	–	> 10000	105	–	–
CNCCOc1ccc(Cl)cc1Nc1nccc(-c2cc(C#N)c3c(c2)C(C)(C)CN3)n1 [Compound 109]	53.7	152	–	676	–	–
COc1cc(C(=O)N2CC(O)C2)c(Cl)cc1Nc1nccc(-c2cc(C#N)c3c(c2)C(C)(C)CN3)n1 [Compound 110]	4.2	–	> 10000	193	–	–
COc1cc(C(=O)NC2CCC(O)C2)c(Cl)cc1Nc1nccc(-c2cc(C#N)c3c(c2)C(C)(C)CN3)n1 (stereo not drawn) [Compound 115]	4.9	–	> 10000	166	–	–
COc1cc(C(=O)NC2CCC(O)C2)c(Cl)cc1Nc1nccc(-c2cc(C#N)c3c(c2)C(C)(C)CN3)n1 (stereo not drawn) [Compound 116]	6.8	–	–	–	> 10000	162
COc1cc(C(=O)N2CC3C(CO)C3C2)c(Cl)cc1Nc1nccc(-c2cc(C#N)c3c(c2)C(C)(C)CN3)n1 (stereo not drawn) [Compound 117]	4.7	–	1550	19	–	–
COc1cc(C(=O)NC2CC(F)(F)C2)c(Cl)cc1Nc1nccc(-c2cc(C#N)c3c(c2)C(C)(C)CN3)n1 [Compound 118]	25.7	–	> 10000	933	–	–
COc1cc(C(=O)N2CCCC(O)CC2)c(Cl)cc1Nc1nccc(-c2cc(C#N)c3c(c2)C(C)(C)CN3)n1 (stereo not drawn) [Compound 119]	7.1	–	1380	28	–	–
COc1cc(C(=O)N2CC3CC(C2)C3O)c(Cl)cc1Nc1nccc(-c2cc(C#N)c3c(c2)C(C)(C)CN3)n1 (stereo not drawn) [Compound 120]	15.5	–	> 10000	25	–	–
CNC(=O)c1ccc(C)c(Nc2ncnc(-c3cc(C#N)c4c(c3)[C@@](C)(CO)CN4)n2)c1 [Compound 214]	6.9	252	–	–	–	–
